According to PubChem BioAssay AID330 (DTP/NCI, 2004):
“And” between values parts separate entries of the source, which are not always exact repeats. Identical values can stand only once. Inconclusive results and toxic doses are left out. How the source made its calls: active means survival T/C of 150% or more; inactive means T/C below 125% in these data.

Test system: P388 leukemia ip, CD2F1 mice, survival T/C
Assay: NCI In Vivo Anticancer Drug Screen. Data for tumor model P388 Leukemia (intraperitoneal) in CD2F1 (CDF1) mice
Details: endpoint: median survival time, higher = longer survival
In short: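 Mice carrying the transplanted tumor received test compound or vehicle. Survival was recorded in each group, and the value is the treated-group measurement divided by that of the vehicle-treated control group.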

[1] = dose: 50.0 mg/kg/injection, schedule: Q01DX005 (ip), vehicle: saline with Tween-80
[2] = dose: 100.0 mg/kg/injection, schedule: Q01DX005 (ip), vehicle: saline with Tween-80
[3] = dose: 200.0 mg/kg/injection, schedule: Q01DX005 (ip), vehicle: saline with Tween-80
[4] = dose: 50.0 mg/kg/injection, schedule: Q01DX005 (ip), vehicle: Klucel (hydroxypropylcellulose) (HPC)
[5] = dose: 100.0 mg/kg/injection, schedule: Q01DX005 (ip), vehicle: Klucel (hydroxypropylcellulose) (HPC)
[6] = dose: 60.0 mg/kg/injection, schedule: Q01DX005 (ip), vehicle: saline with Tween-80

Measured: T/C

NC(Cc1ccc(Br)cc1)c1nn[nH]n1 (configuration not stated)
inactive: dose: 25.0 mg/kg/injection, schedule: Q01DX009 (ip), vehicle: saline with Tween-80 104 % of control | dose: 50.0 mg/kg/injection, schedule: Q01DX009 (ip), vehicle: saline with Tween-80 100 % of control | dose: 100.0 mg/kg/injection, schedule: Q01DX009 (ip), vehicle: saline with Tween-80 100 % of control

NC1(c2ccccc2)CCCCC1
inactive: dose: 12.5 mg/kg/injection, schedule: Q01DX009 (ip), vehicle: saline 99 % of control | dose: 25.0 mg/kg/injection, schedule: Q01DX009 (ip), vehicle: saline 106 % of control | dose: 50.0 mg/kg/injection, schedule: Q01DX009 (ip), vehicle: saline 105 % of control

COC(=O)n1nc(C)c(N(C)C)n1
inactive: [1] 99 % of control | [2] 106 % of control | [3] 113 % of control

CCCn1cc2c3c(cccc31)[C@H]1C[C@@H](C)CN(C)[C@@H]1C2
inactive: dose: 3.12 mg/kg/injection, schedule: Q01DX005 (ip), vehicle: saline with Tween-80 102 % of control and 107 % of control | dose: 6.25 mg/kg/injection, schedule: Q01DX005 (ip), vehicle: saline with Tween-80 100 % of control and 105 % of control and 107 % of control | dose: 12.5 mg/kg/injection, schedule: Q01DX005 (ip), vehicle: saline with Tween-80 102 % of control and 92 % of control and 93 % of control | dose: 25.0 mg/kg/injection, schedule: Q01DX005 (ip), vehicle: saline with Tween-80 98 % of control and 101 % of control | [1] 101 % of control | [2] 104 % of control | [3] 98 % of control

COc1cc2c(c(OC)c1OC)-c1ccc(SC)c(=O)cc1[C@@H](NC(=O)C(F)(F)F)CC2
inactive: dose: 0.08 mg/kg/injection, schedule: Q01DX009 (ip), vehicle: Klucel (hydroxypropylcellulose) (HPC) 110 % of control and 117 % of control | dose: 0.16 mg/kg/injection, schedule: Q01DX009 (ip), vehicle: Klucel (hydroxypropylcellulose) (HPC) 120 % of control and 124 % of control

CCCCCCCCCCCN1CCS(=O)(=O)CC1
inactive: dose: 50.0 mg/kg/injection, schedule: Q01DX009 (ip), vehicle: Klucel (hydroxypropylcellulose) (HPC) 100 % of control | dose: 100.0 mg/kg/injection, schedule: Q01DX009 (ip), vehicle: Klucel (hydroxypropylcellulose) (HPC) 98 % of control | dose: 200.0 mg/kg/injection, schedule: Q01DX009 (ip), vehicle: Klucel (hydroxypropylcellulose) (HPC) 94 % of control

CC1(C)[S][Sn]2[NH]C1C(=O)[O]2 (configuration not stated)
inactive: [4] 98 % of control | [5] 94 % of control

CC1(C)N=C(N)N=C(N)N1c1cccc(CNc2ccc(S(N)(=O)=O)cc2)c1
inactive: dose: 7.5 mg/kg/injection, schedule: Q01DX005 (ip), vehicle: Klucel (hydroxypropylcellulose) (HPC) 102 % of control | dose: 15.0 mg/kg/injection, schedule: Q01DX005 (ip), vehicle: Klucel (hydroxypropylcellulose) (HPC) 100 % of control | dose: 30.0 mg/kg/injection, schedule: Q01DX005 (ip), vehicle: Klucel (hydroxypropylcellulose) (HPC) 102 % of control

CCN(CC)CCCN(c1ccccc1)C1Cc2ccccc2C1
inactive: dose: 15.0 mg/kg/injection, schedule: Q01DX009 (ip), vehicle: saline 95 % of control | dose: 30.0 mg/kg/injection, schedule: Q01DX009 (ip), vehicle: saline 87 % of control | dose: 60.0 mg/kg/injection, schedule: Q01DX009 (ip), vehicle: saline 101 % of control

CC1CC2OC(/C=C/C=C/C=C\C=C\C=C\C(O)=C3\C(=O)C(C(C)C)N(C)C3=O)C(O)C2O1 (configuration not stated)
inactive: dose: 3.0 mg/kg/injection, schedule: Q01DX005 (ip), vehicle: Klucel (hydroxypropylcellulose) (HPC) 120 % of control and 124 % of control

CCOC1(C)OC2OC(COC(C)=O)C(OC(C)=O)C(OC(C)=O)C2O1 (configuration not stated)
inactive: dose: 4.0 mg/kg/injection, schedule: Q01DX009 (ip), vehicle: other 95 % of control | dose: 8.0 mg/kg/injection, schedule: Q01DX009 (ip), vehicle: other 99 % of control | dose: 16.0 mg/kg/injection, schedule: Q01DX009 (ip), vehicle: other 102 % of control | dose: 32.0 mg/kg/injection, schedule: Q01DX009 (ip), vehicle: other 104 % of control | dose: 50.0 mg/kg/injection, schedule: Q01DX009 (ip), vehicle: other 95 % of control | dose: 64.0 mg/kg/injection, schedule: Q01DX009 (ip), vehicle: other 98 % of control | dose: 100.0 mg/kg/injection, schedule: Q01DX009 (ip), vehicle: other 100 % of control | dose: 200.0 mg/kg/injection, schedule: Q01DX009 (ip), vehicle: other 104 % of control | dose: 400.0 mg/kg/injection, schedule: Q01DX009 (ip), vehicle: other 95 % of control

O=C(OCC1N=C1c1ccccc1)c1ccc(Br)cc1 (configuration not stated)
inactive: dose: 100.0 mg/kg/injection, schedule: Q01DX001 (ip), vehicle: suspension in saline 104 % of control | dose: 200.0 mg/kg/injection, schedule: Q01DX001 (ip), vehicle: suspension in saline 99 % of control | dose: 400.0 mg/kg/injection, schedule: Q01DX001 (ip), vehicle: suspension in saline 104 % of control

COC(=O)Cc1[nH]ncc1C(=O)OC
inactive: dose: 60.0 mg/kg/injection, schedule: Q01DX005 (ip), vehicle: saline 106 % of control | dose: 120.0 mg/kg/injection, schedule: Q01DX005 (ip), vehicle: saline 103 % of control | dose: 240.0 mg/kg/injection, schedule: Q01DX005 (ip), vehicle: saline 96 % of control

[CH2-]N(CC)CC.[CH2-]N(CC)CC.[Rh].[Rh].[Rh].[c-]1[c-][c-][cH-][c-]1.[c-]1[c-][c-][cH-][c-]1.[c-]1[c-][c-][cH-][c-]1
inactive: dose: 6.25 mg/kg/injection, schedule: Q04DX002 (ip), vehicle: saline 108 % of control and 96 % of control | dose: 12.5 mg/kg/injection, schedule: Q04DX002 (ip), vehicle: saline 113 % of control and 115 % of control and 91 % of control | dose: 25.0 mg/kg/injection, schedule: Q04DX002 (ip), vehicle: saline 99 % of control and 103 % of control and 113 % of control | dose: 50.0 mg/kg/injection, schedule: Q04DX002 (ip), vehicle: saline 104 % of control and 91 % of control

CCOC(=O)C(C(=O)COC)C(=O)OCC
inactive: dose: 12.5 mg/kg/injection, schedule: Q01DX009 (ip), vehicle: water 100 % of control | dose: 25.0 mg/kg/injection, schedule: Q01DX009 (ip), vehicle: water 99 % of control | dose: 50.0 mg/kg/injection, schedule: Q01DX009 (ip), vehicle: water 99 % of control | dose: 100.0 mg/kg/injection, schedule: Q01DX009 (ip), vehicle: water 98 % of control | dose: 200.0 mg/kg/injection, schedule: Q01DX009 (ip), vehicle: water 97 % of control

O=C(CCl)N/N=C(\c1ccccc1)c1ccc(Br)cc1
inactive: dose: 45.0 mg/kg/injection, schedule: Q01DX009 (ip), vehicle: saline with Tween-80 103 % of control | dose: 90.0 mg/kg/injection, schedule: Q01DX009 (ip), vehicle: saline with Tween-80 98 % of control | dose: 180.0 mg/kg/injection, schedule: Q01DX009 (ip), vehicle: saline with Tween-80 97 % of control

CSc1ncnc2c1ncn2C(SC)C(OC(C)=O)C(OC(C)=O)C(OC(C)=O)C(COC(C)=O)OC(C)=O (configuration not stated)
inactive: [1] 96 % of control | [2] 97 % of control | [3] 102 % of control

COc1ccc(OC)c(N(CCN2C(=O)c3ccccc3C2=O)C(=O)C2CCC(=O)C2C)c1 (configuration not stated)
inactive: [6] 99 % of control | dose: 120.0 mg/kg/injection, schedule: Q01DX005 (ip), vehicle: saline with Tween-80 87 % of control

CNCCCCc1cc(-c2ccc([N+](=O)[O-])cc2)n[nH]1
inactive: dose: 100.0 mg/kg/injection, schedule: Q04DX003 (ip), vehicle: Klucel (hydroxypropylcellulose) (HPC) 105 % of control

CCCC1OP(=O)(N2CC(C)N(P3(=O)OCC(CC)C(CCC)O3)CC2C)OCC1CC (configuration not stated)
inactive: [4] 90 % of control | [5] 101 % of control

CC1(C)C2CCC1(C)C(O)C2N (configuration not stated)
inactive: dose: 30.0 mg/kg/injection, schedule: Q01DX005 (ip), vehicle: saline with Tween-80 93 % of control | [6] 94 % of control and 95 % of control
